Laboratory results: US12090164B2, “Genotype-agnostic rescue of cystic fibrosis with small molecule bicarbonate channels” (The Board of Trustees of the University of Illinois, priority 2017, dated 2024)
“Also recorded” adds a separate entry of the source.

Assay: Na+, K+, Cl-, H+ efflux from liposomes
Type: biochemical
Settings: 1:1000 AmB:lipid, vs DMSO vehicle
Procedure: Palmitoyl oleoyl phosphatidylcholine (POPC) was obtained as a 25 mg/mL solution in CHCl3 from Avanti Polar Lipids (Alabaster, AL) and was stored at −20° C. under an atmosphere of dry argon and used within 3 months. Cholesterol (Sigma Aldrich) was purified by recrystallization from ethanol. NaH^13CO3 was obtained as a white solid from Sigma Aldrich. Sodium, potassium, and chloride measurements were obtained using a Denver Instruments (Denver, CO) Model 225 pH meter equipped with the appropriate ion selective probe inside a Faraday cage. Sodium selective measurements were obtained using an Orion micro sodium electrode (Thermo 9811BN). Potassium selective measurements were obtained with an Orion Potassium Sure-Flow Combination Electrode with Waterproof BNC connector (Thermo 9719BNWP). Chloride selective measurements were obtained using an Orion combination chloride electrode (Thermo 9617BNWP). For sodium efflux experiments, measurements were made on 1.5 mL solutions that were magnetically stirred in 7 mL vials incubated at 23° C. […]
Prior to preparing a lipid film, this solution was warmed to ambient temperature to prevent condensation from contaminating the solution and degrading the lipid film. […] To obtain a sufficient quantity of large unilamellar vesicles (LUVs), at least two independent lipid film preparations were pooled together for the subsequent formation of LUVs. […]

## C[C@@H]1[C@H](O)[C@@H](C)/C=C/C=C/C=C/C=C/C=C/C=C/C=C/[C@H](O[C@@H]2O[C@H](C)[C@@H](O)[C@H](N)[C@@H]2O)C[C@@H]2O[C@](O)(C[C@@H](O)C[C@@H](O)[C@H](O)CC[C@@H](O)C[C@@H](O)CC(=O)O[C@H]1C)C[C@H](O)[C@H]2C(=O)O [AmB, amphotericin B]
  transport of potassium, sodium, chloride, protons across a lipid membrane: known to transport monovalent anions and cations; also recorded: can transport potassium, sodium, chloride, protons and HCO3^−
